SMILES strings stand for the structures.

Common to all, as to assay: Radioligand Competition Assay
For orientation: In a radioligand displacement assay an active substance lowers the binding of a labelled ligand.

For assay [1], the target named is Neuronal acetylcholine receptor subunit alpha-7 (Rattus norvegicus, UniProt Q05941).
Assay [2] deals with Neuronal acetylcholine receptor subunit alpha-4 (Rattus norvegicus, UniProt P09483).
Assay [3] concerns the target Acetylcholine-binding protein (Lymnaea stagnalis, UniProt P58154).

Neuronal acetylcholine receptor subunit alpha-4, sequence (P09483 whole entry): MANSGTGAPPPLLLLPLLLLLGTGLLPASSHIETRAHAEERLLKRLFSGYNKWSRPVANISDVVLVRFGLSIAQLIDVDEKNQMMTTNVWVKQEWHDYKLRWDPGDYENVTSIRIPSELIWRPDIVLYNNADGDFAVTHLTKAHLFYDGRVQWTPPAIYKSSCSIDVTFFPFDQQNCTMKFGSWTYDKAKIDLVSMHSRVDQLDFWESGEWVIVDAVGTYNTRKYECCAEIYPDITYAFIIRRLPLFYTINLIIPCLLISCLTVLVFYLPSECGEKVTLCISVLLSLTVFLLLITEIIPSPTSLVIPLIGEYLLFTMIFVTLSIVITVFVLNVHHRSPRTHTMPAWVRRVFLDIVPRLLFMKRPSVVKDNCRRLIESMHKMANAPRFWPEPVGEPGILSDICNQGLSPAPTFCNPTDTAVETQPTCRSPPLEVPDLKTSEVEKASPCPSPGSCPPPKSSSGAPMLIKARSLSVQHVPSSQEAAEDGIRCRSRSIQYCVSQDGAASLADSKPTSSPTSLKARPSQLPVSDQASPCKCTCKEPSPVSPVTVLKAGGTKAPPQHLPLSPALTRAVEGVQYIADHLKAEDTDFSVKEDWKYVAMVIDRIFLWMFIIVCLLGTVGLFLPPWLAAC
Neuronal acetylcholine receptor subunit alpha-7, sequence (Q05941 whole entry): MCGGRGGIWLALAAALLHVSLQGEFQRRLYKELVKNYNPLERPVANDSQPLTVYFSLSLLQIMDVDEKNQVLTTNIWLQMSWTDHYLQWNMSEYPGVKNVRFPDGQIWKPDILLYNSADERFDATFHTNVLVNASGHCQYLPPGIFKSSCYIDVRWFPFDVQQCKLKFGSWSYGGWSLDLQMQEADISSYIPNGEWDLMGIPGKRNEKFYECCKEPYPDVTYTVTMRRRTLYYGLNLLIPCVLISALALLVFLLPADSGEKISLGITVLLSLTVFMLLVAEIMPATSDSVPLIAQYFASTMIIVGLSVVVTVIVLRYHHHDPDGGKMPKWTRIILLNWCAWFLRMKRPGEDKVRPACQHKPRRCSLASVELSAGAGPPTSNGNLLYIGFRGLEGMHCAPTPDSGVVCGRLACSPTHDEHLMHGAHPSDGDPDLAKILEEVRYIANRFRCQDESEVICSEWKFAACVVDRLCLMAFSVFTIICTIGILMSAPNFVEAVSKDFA
Acetylcholine-binding protein, sequence (P58154 whole entry): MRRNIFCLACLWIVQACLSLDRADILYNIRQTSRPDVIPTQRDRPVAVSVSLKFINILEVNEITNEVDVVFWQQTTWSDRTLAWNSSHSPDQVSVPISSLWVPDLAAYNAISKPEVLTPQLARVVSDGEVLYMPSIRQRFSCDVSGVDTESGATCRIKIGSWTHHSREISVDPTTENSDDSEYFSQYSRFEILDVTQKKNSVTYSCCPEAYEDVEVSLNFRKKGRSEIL

Regarding `c1ccc(-c2cncc(N3CCCNCC3)c2)cc1`, the Ki in assay [1] is greater than 10000 nM; in assay [2], 0.8 nM.
The matching figures for `c1cncc(N2CCCNCC2)c1`: 136 nM and 0.72 nM.
`CCOc1cc(N2CCCNCC2)cnc1Br`: the Ki in assay [1] was 847 nM; in assay [2], 0.25 nM.
`Clc1ccc([C@H]2C[C@@H]3CC[C@H]2N3)cn1` registered a Ki in assay [3] of 0.097 nM.
Take `O=c1cccc2n1CC1CNCC2C1` (stereo not given) [CAS_485-35-8]: the results for the Ki in assay [1], in assay [3] and in assay [2] were 295 nM, 8.2 nM and 0.95 nM, respectively.
Consider `CCOc1cncc(N2CCCNCC2)c1` [NS3573, 2], for which the Ki in assay [1] stood at 9970 nM; in assay [3], 2.2 nM; in assay [2], 0.62 nM.
Take `Brc1ccc(N2CCCNCC2)cn1` [NS3920, 4]: the Ki in assay [1] stood at 190 nM; in assay [2], 0.32 nM.

The Ki is the dissociation constant of the complex between target and ligand, obtained from inhibition or displacement. A higher Ki goes with weaker binding.

The record behind these values is BindingDB's records for doi:10.1074/jbc.M111.292243 (University of Copenhagen, 2012).
